Reference: patent publication US20230068010A1, “FORMULATION OF INSECTICIDAL MIXTURES COMPRISING GLYCOL ETHER SOLVENTS” (Bayer Aktiengesellschaft, priority 2019, published 2023)

Experiment: Cuticle penetration test
Type: in vitro ADME, apple tree
Text: This test measures the penetration of active ingredients through enzymatically isolated cuticles of apple tree leaves.
Leaves that have been cut off apple trees in the developed state and isolated by the method described in Schönherr and Riederer (Schönherr, J., Riederer, M. (1986)) are used. Only the cuticles of the top sides of the leaves that are free of stomata and hair are used further.
For membrane transport studies, the cuticular membranes thus obtained are placed into stainless steel diffusion cells (=transport chambers). For this purpose, the cuticles are placed with tweezers onto the middle of the silicone grease-smeared edges of the diffusion cells and sealed with a likewise greased ring. The arrangement is chosen such that the morphological outside of the cuticles is directed outward, i.e. toward the air, while the original inside faces the inside of the diffusion cell. The diffusion cells are filled with water or with a mixture of water and solvent and buffered to the physiologically relevant pH of 5.5. The medium in the diffusion cells is supposed to simulate the apoplast, i.e. the natural absorption medium within the leaf. This method is of good suitability for systemic and mechanistic studies with the aim of understanding the effect of the formulations, adjuvants and solvents on penetration of the crop protection compositions.
The active ingredient concentration corresponds to the field application rate customary in practice. For preparation of the spray liquor the corresponding ingredients in the given amounts are given into tap water and homogenized by mixing.
After the spray liquors have been applied, the water is allowed to evaporate in each case, then the chambers are inverted and they are placed into thermostated tanks, wherein air at a defined air humidity and temperature is blown onto the outside of the cuticles in each case. The penetration that sets in therefore takes place at a relative air humidity of 56% and a set temperature of 25° C. At regular intervals, an autosampler is used to take samples and the content of penetrated active ingredient is measured by means of HPLC. The numbers reported are average values from 5 to 10 individual measurements in each case.

O=C1C=C(N(Cc2ccc(Cl)nc2)CC(F)F)CO1 [Flupyradifurone]
Penetration after 24 h (entry 1: spray solution 0.1 g/L Compd I-2 + 0.5 g/L flupyradifurone, no additives, 25° C., 56% r.h.): 5.1% | Penetration after 24 h (entry 1: spray solution 0.1 g/L Compd I-2 + 0.5 g/L flupyradifurone, no additives, 25° C., 56% r.h., listed as flupyradifurone): barely any, if any, cuticle penetration | Penetration after 24 h (entry 2: 0.1 g/L Compd I-2 + 0.5 g/L flupyradifurone + DAHP 1.6 g/L, 25° C., 56% r.h.): 29.2% | Penetration after 24 h (entry 3: 0.1 g/L Compd I-2 + 0.5 g/L flupyradifurone + Antarox B/848 1.3 g/L, 25° C., 56% r.h.): 73% | Penetration after 24 h (entry 4: 0.1 g/L Compd I-2 + 0.5 g/L flupyradifurone + Antarox B/848 1.3 + DAHP 1.6 g/L, 25° C., 56% r.h.): 82.8% | Penetration after 24 h (entry 5: as entry 4 + 1.8 g/L Propylenglycolmonomethylether (B) + 1.8 g/L Propylenglycol (C)): 87.2% | Penetration after 24 h (entry 6: as entry 4 + 1.8 g/L Propylenglycolmonomethylether (B) + 1.8 g/L Dipropylenglycol (D)): 100% | Penetration after 24 h (entry 7: as entry 4 + 2.1 g/L Dipropylenglycolmonomethylether (A) + 1.4 g/L Propylenglycolmonomethylether (B)): 100% | Penetration after 24 h (entry 8: as entry 4 + 2.5 g/L Dipropylenglycolmonomethylether (A) + 1.2 g/L Propylenglycol (C)): 95%
